Common to all, as to test: biochemical
What all share (type): biochemical

For test [1], the target named is T1, 382 unique human kinases (Homo sapiens, UniProt O75676).
T1 construct: purchased Reaction Biology (HotSpot contract assay)
Particulars: kinase MSK2/RPS6KA4, compound 10 uM; for remaining activity at 10 µM: read-out: % Enzyme Activity (relative to DMSO controls).

Test [2] deals with T2, 382 unique human kinases (Homo sapiens, UniProt P16591).
T2 construct: purchased Reaction Biology (HotSpot contract assay)
T2 sequence (P16591 whole entry): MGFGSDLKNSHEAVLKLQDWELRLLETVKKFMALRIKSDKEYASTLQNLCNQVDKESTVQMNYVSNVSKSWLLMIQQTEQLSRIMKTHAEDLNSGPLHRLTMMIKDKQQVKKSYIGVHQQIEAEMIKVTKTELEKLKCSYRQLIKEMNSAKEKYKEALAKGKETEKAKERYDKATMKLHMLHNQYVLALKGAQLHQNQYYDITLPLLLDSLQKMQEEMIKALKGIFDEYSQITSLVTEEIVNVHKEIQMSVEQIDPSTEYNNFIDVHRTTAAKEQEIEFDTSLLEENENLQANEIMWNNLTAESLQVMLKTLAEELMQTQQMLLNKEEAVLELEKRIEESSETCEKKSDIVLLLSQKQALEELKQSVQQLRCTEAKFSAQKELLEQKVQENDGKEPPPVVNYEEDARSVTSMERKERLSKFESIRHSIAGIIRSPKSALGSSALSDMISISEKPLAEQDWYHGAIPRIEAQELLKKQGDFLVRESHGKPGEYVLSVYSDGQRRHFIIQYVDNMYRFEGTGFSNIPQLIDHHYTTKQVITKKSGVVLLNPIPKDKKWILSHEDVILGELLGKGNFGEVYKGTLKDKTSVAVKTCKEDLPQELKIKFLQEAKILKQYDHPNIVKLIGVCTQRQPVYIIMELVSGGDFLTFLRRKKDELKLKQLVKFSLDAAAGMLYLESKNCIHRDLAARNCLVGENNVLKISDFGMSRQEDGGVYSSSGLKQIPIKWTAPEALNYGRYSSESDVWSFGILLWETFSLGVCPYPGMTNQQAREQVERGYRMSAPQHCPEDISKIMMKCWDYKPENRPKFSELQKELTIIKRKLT
The settings on record: kinase FER, compound 10 uM; for remaining activity at 10 µM: read-out: % Enzyme Activity (relative to DMSO controls).

Test [3] deals with T3, 382 unique human kinases (Homo sapiens, UniProt P49759).
T3 construct: purchased Reaction Biology (HotSpot contract assay)
T3 sequence (P49759 whole entry): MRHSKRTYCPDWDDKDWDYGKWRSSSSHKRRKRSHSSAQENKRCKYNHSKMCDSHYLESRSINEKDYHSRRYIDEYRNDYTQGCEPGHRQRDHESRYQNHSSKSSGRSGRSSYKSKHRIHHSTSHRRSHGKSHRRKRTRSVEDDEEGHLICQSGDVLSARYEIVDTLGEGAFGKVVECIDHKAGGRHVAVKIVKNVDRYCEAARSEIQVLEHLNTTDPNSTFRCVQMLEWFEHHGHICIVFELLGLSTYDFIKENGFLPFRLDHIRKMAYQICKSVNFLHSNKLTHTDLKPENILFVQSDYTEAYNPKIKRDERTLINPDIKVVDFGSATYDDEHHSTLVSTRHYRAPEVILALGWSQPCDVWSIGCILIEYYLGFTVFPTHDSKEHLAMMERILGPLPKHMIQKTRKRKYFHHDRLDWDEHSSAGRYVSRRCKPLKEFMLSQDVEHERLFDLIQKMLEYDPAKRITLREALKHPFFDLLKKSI
Particulars: CLK1, 10 uM; for remaining activity at 10 µM: read-out: % Enzyme Activity (relative to DMSO controls).

Test [4] has as its target T4, 382 unique human kinases (Homo sapiens, UniProt Q6P2M8).
T4 construct: purchased Reaction Biology (HotSpot contract assay)
The settings on record: kinase CAMK1b, compound 10 uM; for remaining activity at 10 µM: read-out: % Enzyme Activity (relative to DMSO controls).

Test [5] deals with T5, 382 unique human kinases (Homo sapiens, UniProt Q92918).
T5 construct: purchased Reaction Biology (HotSpot contract assay)
T5 sequence (Q92918 whole entry): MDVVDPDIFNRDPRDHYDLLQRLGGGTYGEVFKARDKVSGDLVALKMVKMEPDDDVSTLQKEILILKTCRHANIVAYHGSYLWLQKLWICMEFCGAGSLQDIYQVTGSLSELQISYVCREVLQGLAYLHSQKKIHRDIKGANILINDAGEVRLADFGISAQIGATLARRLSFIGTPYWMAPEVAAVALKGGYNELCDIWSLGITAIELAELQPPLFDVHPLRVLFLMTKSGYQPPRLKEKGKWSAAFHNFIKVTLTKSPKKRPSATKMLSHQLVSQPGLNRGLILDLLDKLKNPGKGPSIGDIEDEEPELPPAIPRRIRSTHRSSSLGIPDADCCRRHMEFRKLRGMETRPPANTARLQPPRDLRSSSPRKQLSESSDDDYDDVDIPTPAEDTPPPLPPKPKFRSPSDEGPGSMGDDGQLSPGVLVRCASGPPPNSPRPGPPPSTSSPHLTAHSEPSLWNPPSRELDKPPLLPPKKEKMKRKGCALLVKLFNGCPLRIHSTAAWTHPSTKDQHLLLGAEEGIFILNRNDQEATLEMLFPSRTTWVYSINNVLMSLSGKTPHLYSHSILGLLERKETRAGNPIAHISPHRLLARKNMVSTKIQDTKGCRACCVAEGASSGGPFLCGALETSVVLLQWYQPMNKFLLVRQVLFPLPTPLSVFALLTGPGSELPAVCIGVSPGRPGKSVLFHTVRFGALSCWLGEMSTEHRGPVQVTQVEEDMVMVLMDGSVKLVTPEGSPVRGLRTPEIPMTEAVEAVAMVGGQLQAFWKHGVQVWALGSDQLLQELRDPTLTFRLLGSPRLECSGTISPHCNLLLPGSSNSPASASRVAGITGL
The settings on record: kinase HPK1/MAP4K1, compound 10 uM; for remaining activity at 10 µM: read-out: % Enzyme Activity (relative to DMSO controls).

The target of test [6] is T6, 382 unique human kinases (Homo sapiens, UniProt P15056, V600E).
T6 construct: purchased Reaction Biology (HotSpot contract assay)
T6 sequence (P15056 whole entry V600E): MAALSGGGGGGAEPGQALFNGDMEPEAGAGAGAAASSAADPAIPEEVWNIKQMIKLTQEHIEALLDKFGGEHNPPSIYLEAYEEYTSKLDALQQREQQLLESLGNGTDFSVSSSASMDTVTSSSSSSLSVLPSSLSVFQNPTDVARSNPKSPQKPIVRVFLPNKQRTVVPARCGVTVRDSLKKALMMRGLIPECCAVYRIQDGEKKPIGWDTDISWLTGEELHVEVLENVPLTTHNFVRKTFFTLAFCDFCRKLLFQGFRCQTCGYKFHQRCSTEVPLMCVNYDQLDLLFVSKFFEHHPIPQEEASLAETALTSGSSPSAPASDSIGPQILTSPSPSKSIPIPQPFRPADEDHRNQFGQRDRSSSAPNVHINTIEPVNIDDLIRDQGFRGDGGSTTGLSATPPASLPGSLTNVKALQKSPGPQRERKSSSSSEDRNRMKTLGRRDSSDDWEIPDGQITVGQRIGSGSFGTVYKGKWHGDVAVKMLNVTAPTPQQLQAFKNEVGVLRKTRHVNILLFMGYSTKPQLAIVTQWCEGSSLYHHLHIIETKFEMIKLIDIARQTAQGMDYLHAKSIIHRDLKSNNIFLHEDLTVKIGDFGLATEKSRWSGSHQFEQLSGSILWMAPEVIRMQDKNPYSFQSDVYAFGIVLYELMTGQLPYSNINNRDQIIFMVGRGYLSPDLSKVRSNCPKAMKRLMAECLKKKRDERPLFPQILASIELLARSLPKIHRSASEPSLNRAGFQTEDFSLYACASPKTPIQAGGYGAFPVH
Particulars: BRAF (V599E), 10 uM; for remaining activity at 10 µM: read-out: % Enzyme Activity (relative to DMSO controls).

Test [7] has as its target T7, 382 unique human kinases (Homo sapiens, UniProt P29317).
T7 construct: purchased Reaction Biology (HotSpot contract assay)
Particulars: EPHA2, [ATP] 50 µM, compound 10 uM; for remaining activity at 10 µM: read-out: % Enzyme Activity (relative to DMSO controls).

The target of test [8] is T8, 382 unique human kinases (Homo sapiens, UniProt P45985).
T8 construct: purchased Reaction Biology (HotSpot contract assay)
T8 sequence (P45985 1-399): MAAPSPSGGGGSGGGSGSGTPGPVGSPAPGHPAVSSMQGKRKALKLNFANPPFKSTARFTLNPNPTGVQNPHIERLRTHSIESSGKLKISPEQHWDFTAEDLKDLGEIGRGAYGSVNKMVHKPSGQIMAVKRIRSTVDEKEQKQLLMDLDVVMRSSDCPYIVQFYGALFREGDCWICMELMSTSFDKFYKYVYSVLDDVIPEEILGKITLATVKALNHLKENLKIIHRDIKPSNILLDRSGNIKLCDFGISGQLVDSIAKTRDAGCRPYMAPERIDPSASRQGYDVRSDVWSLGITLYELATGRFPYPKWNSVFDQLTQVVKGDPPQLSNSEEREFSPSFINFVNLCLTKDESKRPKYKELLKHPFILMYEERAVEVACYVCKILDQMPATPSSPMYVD
The settings on record: MKK4, [ATP] 2.5 µM, compound 10 uM; for remaining activity at 10 µM: read-out: % Enzyme Activity (relative to DMSO controls).

Test [9] has as its target T9, 382 unique human kinases (Homo sapiens, UniProt P54753).
T9 construct: purchased Reaction Biology (HotSpot contract assay)
T9 sequence (P54753 34-998): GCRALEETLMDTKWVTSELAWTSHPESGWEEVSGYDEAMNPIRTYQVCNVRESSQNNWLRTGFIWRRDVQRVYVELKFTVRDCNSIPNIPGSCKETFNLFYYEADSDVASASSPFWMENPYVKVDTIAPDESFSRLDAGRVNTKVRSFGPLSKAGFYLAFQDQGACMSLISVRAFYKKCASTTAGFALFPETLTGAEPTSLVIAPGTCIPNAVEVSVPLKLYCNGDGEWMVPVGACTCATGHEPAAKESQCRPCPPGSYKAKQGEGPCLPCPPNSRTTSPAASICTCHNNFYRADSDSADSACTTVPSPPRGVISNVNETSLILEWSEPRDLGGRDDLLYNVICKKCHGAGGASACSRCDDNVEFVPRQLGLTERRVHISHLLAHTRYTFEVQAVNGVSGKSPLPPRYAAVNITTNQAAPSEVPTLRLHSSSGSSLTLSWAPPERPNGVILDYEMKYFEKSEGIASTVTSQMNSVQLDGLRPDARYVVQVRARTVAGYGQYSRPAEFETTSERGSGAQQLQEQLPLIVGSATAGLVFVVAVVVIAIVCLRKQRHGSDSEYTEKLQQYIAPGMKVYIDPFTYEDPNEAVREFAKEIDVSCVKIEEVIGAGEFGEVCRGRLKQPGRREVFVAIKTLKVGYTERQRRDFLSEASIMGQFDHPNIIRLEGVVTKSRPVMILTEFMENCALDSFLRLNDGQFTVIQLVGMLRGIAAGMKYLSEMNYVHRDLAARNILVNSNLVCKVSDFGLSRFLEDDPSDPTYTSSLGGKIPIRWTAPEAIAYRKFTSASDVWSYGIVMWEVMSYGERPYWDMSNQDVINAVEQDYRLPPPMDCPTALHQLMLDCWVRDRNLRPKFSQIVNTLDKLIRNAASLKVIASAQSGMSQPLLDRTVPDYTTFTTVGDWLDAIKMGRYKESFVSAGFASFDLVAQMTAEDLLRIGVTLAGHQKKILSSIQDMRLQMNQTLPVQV
Particulars: EPHB3, 10 uM; for remaining activity at 10 µM: read-out: % Enzyme Activity (relative to DMSO controls).

Test [10] addresses T10, 382 unique human kinases (Homo sapiens, UniProt Q9HC98).
T10 construct: purchased Reaction Biology (HotSpot contract assay)
The settings on record: NEK6, 10 uM; for remaining activity at 10 µM: read-out: % Enzyme Activity (relative to DMSO controls).

The target in test [11] is T11, 382 unique human kinases (Homo sapiens, UniProt Q9UM73, G1202R).
T11 construct: purchased Reaction Biology (HotSpot contract assay)
Particulars: ALK (G1202R), [ATP] 20 µM, compound 10 uM; for remaining activity at 10 µM: read-out: % Enzyme Activity (relative to DMSO controls).

These results are taken from article PMC8550792, “Evolution of kinase polypharmacology across HSP90 drug discovery” (Cell Chemical Biology, 2021).

T1 sequence (O75676 whole entry): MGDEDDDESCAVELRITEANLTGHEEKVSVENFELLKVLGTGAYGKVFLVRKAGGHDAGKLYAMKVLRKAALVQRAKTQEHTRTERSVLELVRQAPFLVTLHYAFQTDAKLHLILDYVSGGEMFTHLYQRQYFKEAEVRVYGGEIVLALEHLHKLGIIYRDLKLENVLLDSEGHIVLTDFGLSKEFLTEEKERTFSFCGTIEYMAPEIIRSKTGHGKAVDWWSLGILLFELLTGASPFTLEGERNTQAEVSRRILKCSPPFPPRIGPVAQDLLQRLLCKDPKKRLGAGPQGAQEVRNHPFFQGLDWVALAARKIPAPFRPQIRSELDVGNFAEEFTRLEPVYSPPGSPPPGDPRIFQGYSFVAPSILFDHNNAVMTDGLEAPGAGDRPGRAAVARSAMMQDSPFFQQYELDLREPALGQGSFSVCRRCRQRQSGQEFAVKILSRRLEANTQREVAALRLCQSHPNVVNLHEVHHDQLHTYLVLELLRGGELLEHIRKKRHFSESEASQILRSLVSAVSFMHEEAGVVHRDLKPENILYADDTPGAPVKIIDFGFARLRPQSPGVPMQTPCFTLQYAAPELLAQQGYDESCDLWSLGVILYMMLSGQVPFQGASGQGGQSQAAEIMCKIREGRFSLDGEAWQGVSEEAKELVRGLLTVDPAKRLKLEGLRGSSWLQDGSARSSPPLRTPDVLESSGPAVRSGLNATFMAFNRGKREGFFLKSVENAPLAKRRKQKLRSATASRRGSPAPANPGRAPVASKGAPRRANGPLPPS
T10 sequence (Q9HC98 whole entry): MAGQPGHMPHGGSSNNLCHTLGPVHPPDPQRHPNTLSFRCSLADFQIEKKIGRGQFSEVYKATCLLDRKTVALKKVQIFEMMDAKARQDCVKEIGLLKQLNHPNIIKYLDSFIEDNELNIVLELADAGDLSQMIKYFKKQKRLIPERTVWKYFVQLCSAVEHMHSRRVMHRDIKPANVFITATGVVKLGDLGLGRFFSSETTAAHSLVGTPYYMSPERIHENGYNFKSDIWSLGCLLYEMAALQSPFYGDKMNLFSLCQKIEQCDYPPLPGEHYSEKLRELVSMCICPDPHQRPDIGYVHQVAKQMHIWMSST
T4 sequence (Q6P2M8 whole entry): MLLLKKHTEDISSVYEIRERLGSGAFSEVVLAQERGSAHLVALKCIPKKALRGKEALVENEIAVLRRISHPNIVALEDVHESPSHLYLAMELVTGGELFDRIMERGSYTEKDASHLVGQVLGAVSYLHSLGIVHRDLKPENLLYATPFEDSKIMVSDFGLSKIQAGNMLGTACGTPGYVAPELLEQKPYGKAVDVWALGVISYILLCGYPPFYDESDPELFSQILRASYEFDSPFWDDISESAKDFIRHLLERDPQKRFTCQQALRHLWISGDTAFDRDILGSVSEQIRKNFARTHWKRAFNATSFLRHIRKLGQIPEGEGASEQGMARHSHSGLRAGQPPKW

With `CC(C)c1cc(-c2n[nH]c(=O)n2-c2ccc3c(ccn3C)c2)c(O)cc1O` [Ganetespib (STA9090)], the remaining activity at 10 µM worked out at 87.3% at 382 unique human kinases [1]; 82.6% at 382 unique human kinases [2]; 69.1% at 382 unique human kinases [3]; 83.4% on 382 unique human kinases [4]; 97.5% on 382 unique human kinases [5].

`CC(C)c1cc(-c2n[nH]c(=O)n2-c2ccc3c(ccn3C)c2)c(O)cc1O` [Ganetespib]: the remaining activity at 10 µM at 382 unique human kinases [6] amounted to 110%; at 382 unique human kinases [7], 43.5%; at 382 unique human kinases [8], 55.2%; on 382 unique human kinases [9], 94.5%; on 382 unique human kinases [10] it was 107%; on 382 unique human kinases [11], 52.8%.

For the molecule `CCNC(=O)c1noc(-c2cc(C(C)C)c(O)cc2O)c1-c1ccc(CN2CCOCC2)cc1` [Luminespib (AUY-922)], the “% Enzyme Activity (relative to DMSO controls)” value amounted to 94.10% on 382 unique human kinases [1]; 101.55% at 382 unique human kinases [2]; 95.73% on 382 unique human kinases [3]; 91.57% on 382 unique human kinases [4]; 120.08% on 382 unique human kinases [5]. Further, the remaining activity at 10 µM on 382 unique human kinases [1] turned out to be 94.4%; at 382 unique human kinases [2] it was 102%; at 382 unique human kinases [3] it was 95.8%; at 382 unique human kinases [4] it was 94.9%; on 382 unique human kinases [5], 121%.

Consider `CCNC(=O)c1noc(-c2cc(C(C)C)c(O)cc2O)c1-c1ccc(CN2CCOCC2)cc1` [Luminespib], for which the “% Enzyme Activity (relative to DMSO controls)” value at 382 unique human kinases [6] is on record as 98.13%; at 382 unique human kinases [7] it was 92.01%; on 382 unique human kinases [8], 93.71%; on 382 unique human kinases [9], 94.58%; at 382 unique human kinases [10], 94.17%; on 382 unique human kinases [11] it was 100.40%. The remaining activity at 10 µM at 382 unique human kinases [6] was determined as 98.8%; on 382 unique human kinases [7], 92.4%; on 382 unique human kinases [8], 98.4%; on 382 unique human kinases [9], 95.5%; on 382 unique human kinases [10], 95.4%; on 382 unique human kinases [11], 104%.
